Experimental data taken from patent publication US8835390B2, “Modulation of osteoclast differentiation” (Osteobuild Ltd., priority 2005, dated 2014).

What was measured:
[1] = system: osteoclast lineage cells (osteoclasts and their mononuclear precursors); test: RANKL-induced osteoclast differentiation (osteoclast number by TRAP staining, cell size by surface area measurement); format: cell-based, mouse; details: for osteoclast lineage cells size: phloretin 50 μM added for the last day, mean ± SEM of at least 50 cells
Protocol: (§1) Bone marrow cells (BMMs) were prepared from the long bones of 7-9 week old BALB/c male mice. Primary BMMs were prepared by flushing mouse femurs and tibias with α-MEM. Cells were cultured in Petri dishes, in complete α-MEM, supplemented with 10% CMG14-12 culture supernatant, which served as a source of M-CSF. After 3 days of culture, plates were washed 3 to 4 times with PBS to remove non-adherent cells. Adherent cells were removed with trypsin-EDTA solution, centrifuged and resuspended in a fresh medium. Murine macrophage-like RAW264.7 cell line was maintained in RPMI 1640 medium supplemented with 10% fetal calf serum (FCS) in the presence of antibiotics (penicillin and streptomycin). Cells were cultured at 37° C. incubator in a humidified atmosphere with 5% CO2, and media were changed every other day. BMMs (7×10^3/well in α-MEM containing 10% FCS and supernatant from CMG14-12 [1:20]) or RAW264.7 cells (3×10^3/well in RPMI-1640 containing 10% FCS) were incubated in 96-well plates (0.2 ml/well). To induce cells to differentiate into osteoclasts, bacterially-produced recombinant RANKL was added at the time of plating. On day 3, medium was changed and on day 5, osteoclast formation was evaluated (see below). A commercial kit (Cat. No. 387-A, Sigma) was used according to the manufacturer instructions. TRAP-positive cells containing three or more nuclei were scored as osteoclasts. The surface area occupied by osteoclasts and their precursors was quantified using a computerized image analysis system (Olympus BX50, DP50, software: ImagePro Plus, Media Cybernetics). In the following assay the significance of the activity of AQP-9 to osteoclast differentiation was determined.

bone marrow cells (BMMs) = test: Methylene blue uptake; format: cell-based, mouse; details: FIG. 5
Protocol: as §1, with “To induce cells to differentiate into osteoclasts, bacterially-produced recombinant RANKL was added at the time of plating.” left out, “below).” for “below). A commercial kit (Cat. No. 387-A, Sigma) was used according to the manufacturer instructions. TRAP-positive cells containing three or more nuclei were scored as osteoclasts. The surface area occupied by osteoclasts and their precursors was quantified using a computerized image analysis system (Olympus BX50, DP50, software: ImagePro Plus, Media Cybernetics). In the following assay the significance of the activity of AQP-9 to osteoclast differentiation was determined.”
Cells were seeded as for the osteoclast differentiation assay (see above). Monolayers were fixed and methylene blue uptake was measured as described [Goldman, R., and Bar-Shavit, Z. (1979) J. Natl. Cancer Inst. […]

O=C(CCc1ccc(O)cc1)c1c(O)cc(O)cc1O [Phloretin, 2′,4′,6′-Trihydroxy-3-(4-hydroxyphenyl)-propiophenone]
osteoclast lineage cells size ([1]; +RANKL for 5 days): 23722 ± 4351 μm^2
effect on osteoclast number ([1]; +RANKL for 5 days, phloretin added for the last day, FIG. 4A-4D): dramatic reduction
effect on osteoclast size ([1]; +RANKL for 5 days, phloretin added for the last day, FIG. 4A-4D, Table 3): dramatic reduction
effect on number of the mononuclear precursors ([1]; cells not treated with RANKL): did not exhibit a significant effect
effect on size of the mononuclear precursors ([1]; cells not treated with RANKL): did not exhibit a significant effect
osteoclast lineage cells size ([1]; −RANKL (mononuclear precursors)): 267 ± 6 μm^2
effect on methylene blue uptake (bone marrow cells (BMMs); RANKL-treated cells): marked inhibition
effect on methylene blue uptake (bone marrow cells (BMMs); mononuclear precursors (BMMs grown in the absence of RANKL)): No effect
